Reference: ChEMBL document CHEMBL3390841, “Design and synthesis of novel N,N-glycoside derivatives of 3,3-diindolylmethanes as potential antiproliferative agents” (Medchemcomm, 2012)
The source made the active and inactive calls. No cut-off for these calls is given here.

Columns and labels:
[1] = tested on: HeLa; assay: Cytotoxicity against human HeLa cells assessed as growth inhibition after 48 hrs by MTT assay; assay type: functional, cell-based; parameters: unit not given here
[2] = tested on: A549; assay: Cytotoxicity against human A549 cells assessed as growth inhibition after 48 hrs by MTT assay; assay type: functional, cell-based
[3] = tested on: MCF7; assay: Cytotoxicity against human MCF7 cells assessed as growth inhibition after 48 hrs by MTT assay; assay type: functional, cell-based
[4] = tested on: HeLa; assay: Cytotoxicity against human HeLa cells assessed as inhibition of colony formation at 0.1 to 1 umol after 5 days by crystal violet staining assay; assay type: functional, cell-based
[5] = tested on: HeLa; assay: Antimigratory activity against human HeLa cells in low serum containing medium at 0.3 to 1 umol after 24 hrs by wound healing assay; assay type: functional, cell-based
[6] = tested on: HeLa; assay: Induction of apoptosis in human HeLa cells assessed as downregulation of survivin protein expression after 24 hrs by Western blot analysis; assay type: functional, cell-based
[7] = tested on: HeLa; assay: Induction of apoptosis in human HeLa cells assessed as downregulation of GRP78 protein expression after 24 hrs by Western blot analysis; assay type: functional, cell-based
[8] = tested on: HeLa; assay: Cell cycle arrest in human HeLa cells assessed as accumulation at sub-G1 phase at 0.3 umol after 24 hrs (reference value: 7.8%); assay type: functional
[9] = tested on: HeLa; assay: Induction of apoptosis in human HeLa cells assessed as downregulation of Bcl-2 protein expression after 24 hrs by Western blot analysis; assay type: functional, cell-based
[10] = tested on: HeLa; assay: Cell cycle arrest in human HeLa cells assessed as accumulation at sub-G1 phase at 1 umol after 24 hrs (reference value: 7.8%); assay type: functional
[11] = tested on: HeLa; assay: Cell cycle arrest in human HeLa cells assessed as accumulation at sub-G1 phase at 0.1 umol after 24 hrs (reference value: 7.8%); assay type: functional
[12] = tested on: HeLa; assay: Induction of apoptosis in human HeLa cells assessed as upregulation of par-4 protein expression after 24 hrs by Western blot analysis; assay type: functional, cell-based
[13] = tested on: HeLa; assay: Antimigratory activity against human HeLa cells in low serum containing medium at 25 nmol after 24 hrs by wound healing assay; assay type: functional, cell-based

Structure (SMILES)	IC50 [1]	IC50 [2] [µM]	IC50 [3] [µM]	other results
CCCCCCCC(c1c[nH]c2ccc(C#N)cc12)c1c[nH]c2ccc(C#N)cc12	7	26	2.5	–
Brc1ccc2[nH]cc(C(c3ccccc3)c3c[nH]c4ccc(Br)cc34)c2c1	0.9	7.5	5.5	–
CC(=O)OC[C@H]1O[C@@H](n2cc(C(c3ccc([N+](=O)[O-])cc3)c3cn([C@@H]4O[C@H](COC(C)=O)[C@@H](OC(C)=O)[C@H](OC(C)=O)[C@H]4OC(C)=O)c4ccc(Br)cc34)c3cc(Br)ccc32)[C@H](OC(C)=O)[C@@H](OC(C)=O)[C@@H]1OC(C)=O	3.5	8	> 100	–
Brc1ccc(C(c2c[nH]c3ccc(Br)cc23)c2c[nH]c3ccc(Br)cc23)cc1	1.5	5.6	3.2	inhibition [4]: Active
CN(C)c1ccc(C(c2c[nH]c3ccc(Br)cc23)c2c[nH]c3ccc(Br)cc23)cc1	12.8	25	24.9	–
COc1ccc(OC)c(C(c2c[nH]c3ccc(Br)cc23)c2c[nH]c3ccc(Br)cc23)c1	5.1	10	2.8	–
CCCCCCCC(c1cn([C@@H]2O[C@H](CO)[C@@H](O)[C@H](O)[C@H]2O)c2ccc(Br)cc12)c1cn([C@@H]2O[C@H](CO)[C@@H](O)[C@H](O)[C@H]2O)c2ccc(Br)cc12	0.3	1.3	0.9	Activity [5]: Active; inhibition [4]: Active; Activity [6]: Dose-dependent effect; Activity [7]: Dose-dependent effect; Activity [8]: 19.3%; Activity [9]: Dose-dependent effect; Activity [10]: 22.4%; Activity [11]: 27.8%; Activity [12]: Dose-dependent effect
CC(c1ccccc1)(c1c[nH]c2ccccc12)c1c[nH]c2ccccc12	4.2	8.5	4	–
N#Cc1ccc2[nH]cc(C(c3ccc(Br)cc3)c3c[nH]c4ccc(C#N)cc34)c2c1	> 100	> 100	27.1	–
Oc1cccc(C(c2c[nH]c3ccc(Br)cc23)c2c[nH]c3ccc(Br)cc23)c1	3.9	8	2.8	–
COc1ccc(C(c2c[nH]c3ccc(Br)cc23)c2c[nH]c3ccc(Br)cc23)cc1	5.5	10	2.3	–
c1ccc(C(c2c[nH]c3ccccc23)c2c[nH]c3ccccc23)cc1	21.8	40	22.2	–
CN[C@@H]1C[C@H]2O[C@@](C)([C@@H]1OC)n1c3ccccc3c3c4c(c5c6ccccc6n2c5c31)C(=O)NC4 [STAUROSPORINE]	–	–	0.013	Activity [13]: Active
OC[C@H]1O[C@@H](n2cc(C(c3ccc(Cl)cc3)c3cn([C@@H]4O[C@H](CO)[C@@H](O)[C@H](O)[C@H]4O)c4ccc(Br)cc34)c3cc(Br)ccc32)[C@H](O)[C@@H](O)[C@@H]1O	32	2.7	53.2	–
CC(=O)OC[C@H]1O[C@@H](n2cc(C(c3ccc(Br)cc3)c3cn([C@@H]4O[C@H](COC(C)=O)[C@@H](OC(C)=O)[C@H](OC(C)=O)[C@H]4OC(C)=O)c4ccc(Br)cc34)c3cc(Br)ccc32)[C@H](OC(C)=O)[C@@H](OC(C)=O)[C@@H]1OC(C)=O	70	24	> 100	–
COc1ccc(C(c2c[nH]c3ccc(Br)cc23)c2c[nH]c3ccc(Br)cc23)cc1OC	6.1	12	7.8	–
O=[N+]([O-])c1ccc(C(c2cn([C@@H]3O[C@H](CO)[C@@H](O)[C@H](O)[C@H]3O)c3ccc(Br)cc23)c2cn([C@@H]3O[C@H](CO)[C@@H](O)[C@H](O)[C@H]3O)c3ccc(Br)cc23)cc1	30	2.4	66.7	–
Clc1ccc(C(c2c[nH]c3ccc(Br)cc23)c2c[nH]c3ccc(Br)cc23)cc1	4.8	8.5	3.5	inhibition [4]: Active

Structure (SMILES)	IC50 [1]	IC50 [2] [µM]	IC50 [3] [µM]	other results
O=[N+]([O-])c1ccc(C(c2c[nH]c3ccc([N+](=O)[O-])cc23)c2c[nH]c3ccc([N+](=O)[O-])cc23)cc1	> 100	> 100	22.5	–
O=[N+]([O-])c1ccc2[nH]cc(C(c3ccc(Cl)cc3)c3c[nH]c4ccc([N+](=O)[O-])cc34)c2c1	> 100	> 100	> 100	–
Oc1ccc(C(c2c[nH]c3ccc(Br)cc23)c2c[nH]c3ccc(Br)cc23)cc1	–	–	3.5	–
CC[C@@]1(O)C(=O)OCc2c1cc1n(c2=O)Cc2cc3ccccc3nc2-1 [CAMPTOTHECIN]	–	–	–	Activity [11]: 33.1%
COc1ccc(C(c2c[nH]c3ccc(Br)cc23)c2c[nH]c3ccc(Br)cc23)c(OC)c1	63.2	100	77.5	–
N#Cc1ccc2[nH]cc(C(c3ccc([N+](=O)[O-])cc3)c3c[nH]c4ccc(C#N)cc34)c2c1	> 100	> 100	23.6	–
COc1cccc(C(c2c[nH]c3ccc(Br)cc23)c2c[nH]c3ccc(Br)cc23)c1OC	64.5	100	89	–
CCCCCCCC(c1c[nH]c2ccc(Br)cc12)c1c[nH]c2ccc(Br)cc12	1.3	3.5	5.5	inhibition [4]: Active
Brc1ccc2[nH]cc(C(c3c[nH]c4ccc(Br)cc34)C3CCCCC3)c2c1	3.2	5.5	4.1	–
CCCCCCCC(c1c[nH]c2ccc([N+](=O)[O-])cc12)c1c[nH]c2ccc([N+](=O)[O-])cc12	35	12.5	5.8	–
CCCCCCCC(c1cn([C@@H]2O[C@H](COC(C)=O)[C@@H](OC(C)=O)[C@H](OC(C)=O)[C@H]2OC(C)=O)c2ccc(Br)cc12)c1cn([C@@H]2O[C@H](COC(C)=O)[C@@H](OC(C)=O)[C@H](OC(C)=O)[C@H]2OC(C)=O)c2ccc(Br)cc12	10	17	> 100	–
CCCC(c1c[nH]c2ccc(Br)cc12)c1c[nH]c2ccc(Br)cc12	3.9	6.5	3.6	–
Brc1ccc2[nH]cc(C(c3ccc4ccccc4c3)c3c[nH]c4ccc(Br)cc34)c2c1	4.3	8.5	7.1	–
O=[N+]([O-])c1ccc(C(c2c[nH]c3ccc(Br)cc23)c2c[nH]c3ccc(Br)cc23)cc1	1.5	5.5	3.1	inhibition [4]: Active
N#Cc1ccc2[nH]cc(C(c3ccc(Cl)cc3)c3c[nH]c4ccc(C#N)cc34)c2c1	> 100	> 100	23.6	–
CC(=O)OC[C@H]1O[C@@H](n2cc(C(c3ccc(Cl)cc3)c3cn([C@@H]4O[C@H](COC(C)=O)[C@@H](OC(C)=O)[C@H](OC(C)=O)[C@H]4OC(C)=O)c4ccc(Br)cc34)c3cc(Br)ccc32)[C@H](OC(C)=O)[C@@H](OC(C)=O)[C@@H]1OC(C)=O	70	24	> 100	–
O=[N+]([O-])c1ccc2[nH]cc(C(c3ccc(Br)cc3)c3c[nH]c4ccc([N+](=O)[O-])cc34)c2c1	> 100	> 100	> 100	–
OC[C@H]1O[C@@H](n2cc(C(c3ccc(Br)cc3)c3cn([C@@H]4O[C@H](CO)[C@@H](O)[C@H](O)[C@H]4O)c4ccc(Br)cc34)c3cc(Br)ccc32)[C@H](O)[C@@H](O)[C@@H]1O	27	2.5	51.1	–
